Measured values as given in patent US20090221082A1, “Microfluidic Evaporators And Determining Physical And/Or Chemical Properties Of Chemical Compounds Therewith” (Rhodia Operations, priority 2005, published 2009).

Experiment: Evaporation-induced nucleation and crystal growth of KCl aqueous solutions in microchannel fingers
Type: physicochemical
Excerpt: The devices used are two-layer PDMS on glass Microsystems (FIG. 1). The microchannels (flowing channel(s)) of the bottom layer are filled with the solution of interest, while air is circulated through the microchannels (evaporation chamber) of the top layer so as to remove the water that pervaporates through the thin membrane of PDMS that separate the two networks where they overlap (thickness e in the 10-30 μm range). Many combinations of geometries for the bottom and top networks can be envisaged. We focus here on the simple “finger” geometry of FIG. 1, a dead end (blind extremity) channel of rectangular cross section (height h, width w, length L) connected to a larger (millimetric) feeding reservoir containing the solution to be concentrated. A terminal section of length L0<L (typically mms to cms) is covered by the water removal network. The operation principle is simple: water in the bottom channel pervaporates through the thin membrane, which induces a compensating flow from the reservoir and concentration of solutes at the finger tip. […]
FIG. 11: Top: view of the chip with 15 microchannels with different evaporation lengths L0 (the bottom of the frame is the end of the evaporation zone). […] Crystal growth is then monitored xf(t). […]

## [Cl-].[K+] [KCl, potassium chloride]
KCl aqueous solution, at this temperature
  nucleation concentration cc: 4.0 ± 0.5 M
From initial crystal growth rate and mass conservation, Te=800±50 s
  solute concentration cx in the growing crystal (crystal density): 20 ± 2 M
